Measurements reported in US12492173B2, “Herbicidal substituted N-tetrazolyl aryl carboxamides” (Bayer Aktiengesellschaft, priority 2019, dated 2025).

Key:
Type in all cases: in vivo
Matricaria inodora = assay: Pre-emergence herbicidal action, MATIN; conditions: dosage 320 g/ha, scored visually after 3 weeks vs untreated controls (100% = plants have died)
Procedure, shortened: (§1)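 Seeds sown in sandy loam in pots and covered with soil; compounds formulated as WP or EC were sprayed onto the soil surface as aqueous suspension/emulsion at 600 to 800 l/ha water with 0.2% wetting agent. Greenhouse growth; visual damage scored after 3 weeks versus untreated controls (100% = plants died, 0% = like control).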

Echinochloa crus-galli [1] = assay: Post-emergence herbicidal action, ECHCG; parameters: key: % herbicidal action vs untreated; 100 = plants died, 0 = like control
Procedure, shortened: (§2)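 Sandy loam, greenhouse; one-leaf stage (2–3 wk after sowing); foliar spray of WP or EC, 600–800 l/ha water + 0.2% wetter; visual rating at ~3 wk vs untreated, % effect.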

Echinochloa crus-galli [2] = assay: Pre-emergence herbicidal action, ECHCG; conditions: dosage 320 g/ha, scored visually after 3 weeks vs untreated controls (100% = plants have died)
Procedure, shortened: as §1

Polygonum convolvulus = assay: Pre-emergence herbicidal action, POLCO; conditions: dosage 320 g/ha, scored visually after 3 weeks vs untreated controls (100% = plants have died)
Procedure, shortened: as §1

Lolium rigidum = assay: Pre-emergence herbicidal action, LOLRI; conditions: dosage 320 g/ha, scored visually after 3 weeks vs untreated controls (100% = plants have died)
Excerpt: 1. Pre-Emergence Herbicidal Action Against Harmful Plants Seeds of monocotyledonous and dicotyledonous weed plants and crop plants are laid out in sandy loam soil in wood-fiber pots and covered with soil. The compounds of the invention, formulated in the form of wettable powders (WP) or as emulsion concentrates (EC), are then applied to the surface of the covering soil in the form of an aqueous suspension or emulsion at a water application rate equating to 600 to 800 l/ha, with addition of 0.2% wetting agent. After the treatment, the pots are placed in a greenhouse and kept under good growth conditions for the trial plants. The damage to the test plants is scored visually after a test period of 3 weeks by comparison with untreated controls (herbicidal activity in percent (%): 100% activity=the plants have died, 0% activity=like control plants). […] The tables below illustrate, in an exemplary manner, the […] herbicidal action of the compounds according to the invention, the herbicidal activity being stated in percent. [table] In the experiments that follow, herbicidal action of numerous inventive compounds and the known compounds that are structurally closest from D1 (WO 2012/028579 A1) and D2 (WO 2018/202535 A1) were compared under the above-specified conditions by the pre-emergence and post-emergence method. The example numbers given in the tables relate to the compounds disclosed in the respective documents. In addition to the compounds disclosed in D1 and D2, the following compounds V-1 to V-14 that are encompassed by D1 or D2 but are not compounds specified therein were used in the comparative experiments: • V-1: 2-(methylsulfanyl)-3-(methylsulfinyl)-N-(1-methyl-1H-tetrazol-5-yl)-4-(trifluoromethyl)benzamide • V-2: 2-(methylsulfanyl)-3-(methylsulfonyl)-N-(1-methyl-1H-tetrazol-5-yl)-4-(trifluoromethyl)benzamide • V-3: 2,3-bis(ethylsulfanyl)-N-(1-methyl-1H-tetrazol-5-yl)-4-(trifluoromethyl)benzamide • V-4: 2-chloro-3-(ethylsulfanyl)-N-(1-methyl-1H-tetrazol-5-yl)-4-(trifluoromethyl)benzamide • V-5: 2-chloro-4-iodo-3-(methylsulfanyl)-N-(1-methyl-1H-tetrazol-5-yl)benzamide • V-6: 2-chloro-4-iodo-3-(methylsulfinyl)-N-(1-methyl-1H-tetrazol-5-yl)benzamide • V-7: 2-chloro-4-iodo-3-(methylsulfonyl)-N-(1-methyl-1H-tetrazol-5-yl)benzamide • V-8: 2-bromo-3-(methylsulfanyl)-N-(1-methyl-1H-tetrazol-5-yl)-4-(trifluoromethyl)benzamide • V-9: 2-bromo-3-(methylsulfinyl)-N-(1-methyl-1H-tetrazol-5-yl)-4-(trifluoromethyl)benzamide • V-10: 2-bromo-3-(methylsulfonyl)-N-(1-methyl-1H-tetrazol-5-yl)-4-(trifluoromethyl)benzamide • V-11: 2-bromo-3-(ethylsulfanyl)-N-(1-methyl-1H-tetrazol-5-yl)-4-(trifluoromethyl)benzamide • V-12: 2-bromo-3-(ethylsulfinyl)-N-(1-methyl-1H-tetrazol-5-yl)-4-(trifluoromethyl)benzamide • V-13: 2-bromo-3-(ethylsulfonyl)-N-(1-methyl-1-1H-tetrazol-5-yl)-4-(trifluoromethyl)benzamide • V-14: 2-cyclopropyl-3-(ethylsulfanyl)-N-(1-methyl-1H-tetrazol-5-yl)-4-(trifluoromethyl)benzamide Herbicidal Pre-Emergence Action: […]

Setaria viridis = assay: Post-emergence herbicidal action, SETVI; parameters: key: % herbicidal action vs untreated; 100 = plants died, 0 = like control
Procedure, shortened: as §2

## CCn1nnnc1NC(=O)c1ccc(C(F)(F)F)c(C[S+]([O-])CC2CC2)c1Cl (stereo not drawn) [Example 2-315]
Matricaria inodora
  herbicidal activity MATIN: 100%
Echinochloa crus-galli [1]; Dosage 80 g/ha
  herbicidal action ECHCG: 100
Echinochloa crus-galli [2]
  herbicidal activity ECHCG: 100%
Polygonum convolvulus
  herbicidal activity POLCO: 90%
Lolium rigidum
  herbicidal activity LOLRI: 90%
Setaria viridis; Dosage 80 g/ha
  herbicidal action SETVI: 100

## CCn1nnnc1NC(=O)c1ccc(C(F)F)c(C[S+]([O-])CC)c1Cl (stereo not drawn) [Example 2-324]
Matricaria inodora
  herbicidal activity MATIN: 100%
Echinochloa crus-galli [1]; post-emergence, dosage 80 g/ha
  herbicidal action ECHCG: 100%
Echinochloa crus-galli [2]
  herbicidal activity ECHCG: 100%
Polygonum convolvulus
  herbicidal activity POLCO: 100%
Lolium rigidum
  herbicidal activity LOLRI: 90%
Setaria viridis; post-emergence, dosage 80 g/ha
  herbicidal action SETVI: 90%

## CCCn1nnnc1NC(=O)c1ccc(C(F)(F)F)c(C[S+](C)[O-])c1SC (stereo not drawn) [Example 3-162]
Matricaria inodora
  herbicidal activity MATIN: 100%
Echinochloa crus-galli [1]; post-emergence, dosage 80 g/ha
  herbicidal action ECHCG: 100%
Echinochloa crus-galli [2]
  herbicidal activity ECHCG: 100%
Polygonum convolvulus
  herbicidal activity POLCO: 100%
Lolium rigidum
  herbicidal activity LOLRI: 90%
Setaria viridis; post-emergence, dosage 80 g/ha
  herbicidal action SETVI: 100%

## CCCn1nnnc1NC(=O)c1ccc(C(F)F)c(CS(=O)(=O)CC)c1Cl [Example 3-325]
Matricaria inodora
  herbicidal activity MATIN: 100%
Echinochloa crus-galli [1]; Dosage 80 g/ha
  herbicidal action ECHCG: 100
Echinochloa crus-galli [2]
  herbicidal activity ECHCG: 100%
Polygonum convolvulus
  herbicidal activity POLCO: 100%
Lolium rigidum
  herbicidal activity LOLRI: 100%
Setaria viridis; Dosage 80 g/ha
  herbicidal action SETVI: 100
